Reference: the NIST ThermoML archive (doi:10.1016/j.jct.2013.09.017)

Assay: xn = mol fraction of the nth substance listed
Conditions: 101 kPa, Liquid; for viscosity: Capillary tube (Ostwald / Ubbelohde) method; for mass density: Vibrating tube method

CCCCCCCCN(CCCCCCCC)CCCCCCCC [trioctylamine] + CCCCCCC
Conditions | mass density, 283.15 K [kg/m3] | mass density, 293.15 K [kg/m3] | mass density, 303.15 K [kg/m3] | viscosity, 283.15 K [mPa·s] | viscosity, 293.15 K [mPa·s] | viscosity, 303.15 K [mPa·s]
x1 = 0.0102 | 696.37 | 688.04 | 679.6 | 0.494 | 0.44 | 0.394
x1 = 0.103 | 726.07 | 718.22 | 710.29 | 0.856 | 0.738 | 0.642
x1 = 0.2636 | 759.83 | 752.47 | 745.07 | 1.827 | 1.51 | 1.269
x1 = 0.3223 | 768.63 | 761.41 | 754.13 | 2.321 | 1.899 | 1.569
x1 = 0.409 | 779.4 | 772.31 | 765.19 | 3.241 | 2.57 | 2.055
x1 = 0.5079 | 789.24 | 782.28 | 775.31 | 4.499 | 3.464 | 2.734
x1 = 0.5997 | 796.55 | 789.72 | 782.85 | 5.814 | 4.377 | 3.374
x1 = 0.7019 | 803.32 | 796.55 | 789.77 | 7.438 | 5.434 | 4.107
x1 = 0.8063 | 808.97 | 802.27 | 795.57 | 9.477 | 6.792 | 5
x1 = 0.906 | 813.43 | 806.79 | 800.15 | 11.64 | 8.231 | 5.972
x1 = 1 | 817.08 | 810.48 | 803.88 | 14.25 | 9.957 | 7.114
